Measured values: patent US20220387604A1, “SELECTIVE DUAL HISTONE DEACETYLASE 6/8 (HDAC6/8) DEGRADERS AND METHODS OF USE THEREOF” (DANA-FARBER CANCER INSTITUTE, INC., priority 2019, published 2022)

Columns and labels:
[1] = molecular target: T1, full length human HDAC8-EGFP (Homo sapiens, UniProt Q9BY41); experiment: HDAC8 reporter assay (HDAC8-EGFP with mCherry reporter); format: cell-based; settings: 5 hour treatment, FIG. 6; hook effect at higher concentrations
T1 construct: Cells stably expressing the full length human HDAC8-EGFP with mCherry reporter; expressed in transfected cells; Cilantro2 vector (Addgene, 74450)
T1 sequence (Q9BY41 1-377): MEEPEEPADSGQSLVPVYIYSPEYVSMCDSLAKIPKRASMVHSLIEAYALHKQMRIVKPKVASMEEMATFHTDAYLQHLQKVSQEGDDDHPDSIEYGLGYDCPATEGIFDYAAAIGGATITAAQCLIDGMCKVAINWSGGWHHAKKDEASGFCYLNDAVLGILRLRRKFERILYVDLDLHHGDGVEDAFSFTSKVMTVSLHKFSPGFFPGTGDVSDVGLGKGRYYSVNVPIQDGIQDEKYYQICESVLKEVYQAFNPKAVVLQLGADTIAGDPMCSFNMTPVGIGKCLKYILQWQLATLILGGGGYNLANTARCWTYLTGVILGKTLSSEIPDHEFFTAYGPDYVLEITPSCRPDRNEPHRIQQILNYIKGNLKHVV
Protocol: Cells stably expressing the full length human HDAC8-EGFP with mCherry reporter in Cilantro2 vector (Addgene, 74450) were seeded at 30-50% confluency in 384-well plates with 50 μL FluoroBrite™ DMEM media (Thermo Fisher Scientific, A18967) containing 10% FBS per well a day before compound treatment. Compounds were dispensed using a D300e Digital Dispenser (HP), normalized to 0.5% DMSO, and incubated with cells for 5 hours. The assay plate was imaged immediately using an Acumen® High Content Imager (TTP Labtech) with 488 nm and 561 nm lasers in […] per well format. The resulting images were analyzed using CellProfiler™.
A series of image analysis steps (‘image analysis pipeline’) was constructed. First, the red and green channels were aligned and cropped to target the middle of each well (to avoid analysis of heavily clumped cells at the edges), and a background illumination function was calculated for both red and green channels of each well individually and subtracted to correct for illumination variations across the 384-well plate from various sources of error. An additional step was then applied to the green channel to suppress the analysis of large auto fluorescent artifacts and enhance the analysis of cell specific fluorescence by way of selecting for objects under a given size, 30 A.U., and with a given shape, speckles. mCherry-positive cells were then identified in the red channel filtering for objects between 8-60 pixels in diameter and using intensity to distinguish between clumped objects. The green channel was then segmented into GFP positive and negative areas and objects were labeled as GFP positive if at least 40% of it overlapped with a GFP positive area. The fraction of GFP-positive cells/mCherry-positive cells in each well was then calculated, and the green and red images were rescaled for visualization. The values for the concentrations that lead to a 50% degradation (DC50) were calculated using the nonlinear fit variable slope model in GraphPad Prism software.

HDAC6/8 = experiment: Quantitative proteomics of cellular protein abundance in Kelly cells: HDAC6/8; format: cell-based, human; settings: moderated t-test, scatter plots FIG. 2A-2C, 4A-4B
Protocol: Lysis buffer (8 M Urea, 50 mM NaCl, 50 mM 4-(2hydroxyethyl)-1-piperazineethanesulfonic acid (EPPS) pH 8.5, protease and phosphatase inhibitors from Roche®) were added to the cell pellets and homogenized by 20 passes through a 21 gauge (1.25 in. long) needle to achieve a cell lysate with a protein concentration between 1-4 mg mL^−1. A micro-BCA assay (Pierce™) was used to determine the final protein concentration in the cell lysate. 200 μg of protein for each sample were reduced and alkylated as described in Donovan et al., Elife 7:e38430 (2018).
Proteins were precipitated using methanol/chloroform. Four volumes of methanol were added to the cell lysate, followed by one volume of chloroform, and finally three volumes of water. The mixture was vortexed and centrifuged to separate the chloroform phase from the aqueous phase. The precipitated protein was washed with three volumes of methanol, centrifuged and the resulting washed precipitated protein was allowed to air dry. The precipitated protein was resuspended in 4 M Urea, 50 mM HEPES pH 7.4, followed by dilution to 1 M urea with the addition of 200 mM EPPS, pH 8. Proteins were first digested with LysC (1:50; enzyme:protein) for 12 hours at room temperature. The LysC digestion was diluted to 0.5 M Urea with 200 mM EPPS pH 8 followed by digestion with trypsin (1:50; enzyme:protein) for 6 hours at 37° C. Tandem mass tag (TMT) reagents (Thermo Fisher Scientific) were dissolved in anhydrous acetonitrile (ACN) according to manufacturer's instructions.
Anhydrous ACN was added to each peptide sample to a final concentration of 30% v/v, and labeling was induced with the addition of TMT reagent to each sample at a ratio of 1:4 peptide:TMT label. The 10-plex labeling reactions were performed for 1.5 hours at room temperature and the reaction quenched by the addition of hydroxylamine to a final concentration of 0.3% for 15 minutes at room temperature. The sample channels were combined at a 1:1:1:1:1:1:1:1:1:1:1 ratio, desalted using C18 solid phase extraction cartridges (Waters®) and analyzed by LC-MS for channel ratio comparison. Samples were then combined using the adjusted volumes determined in the channel ratio analysis and dried down in a speed vacuum. The combined sample was then resuspended in 1% formic acid, and acidified (pH 2-3) before being subjected to desalting with C18 SPE (Sep-Pak®, Waters®). Samples were then offline fractionated into 96 fractions by high pH reverse-phase HPLC (Agilent® LC1260) through an aeris peptide xb-c18 column (Phenomenex®) with mobile phase A containing 5% acetonitrile and 10 mM NH4HCO3 in LC-MS grade H2O, and mobile phase B containing 90% acetonitrile and 10 mM NH4HCO3 in LC-MS grade H2O (both pH 8.0). The 96 resulting fractions were then pooled in a non-continuous manner into 24 fractions and these fractions were used for subsequent mass spectrometry analysis.
Data were collected using an Orbitrap Fusion™ Lumos™ mass spectrometer (Thermo Fisher Scientific, San Jose, Calif., USA) coupled with a Proxeon EASY-nLC™ 1200 LC pump (Thermo Fisher Scientific). Peptides were separated on an EasySpray™ ES803 75 μm inner diameter microcapillary column (ThermoFisher Scientific).
Each analysis used an MS3-based TMT method as described in McAlister et al., Anal. Chem. 86(14):7150-7158 (2014). The data were acquired using a mass range of m/z 340-1350, resolution 120,000, automatic gain control (AGC) target 1×10^6, maximum injection time 100 ms, dynamic exclusion of 120 seconds for the peptide measurements in the Orbitrap Fusion™ Lumos™ mass spectrometer. Data dependent MS2 spectra were acquired in the ion trap with a normalized collision energy (NCE) set at 55%, AGC target set to 1.5×10^5 and a maximum injection time of 150 ms. […]

Compound	degradation of GFP tagged HDAC8 in the reporter cell lines [1]	reduction in HDAC6/8 protein levels compared to DMSO treated cells (HDAC6/8)
O=C(/C=C/c1ccc(CN(CCOCCOCCOCCNc2cccc3c2C(=O)N(C2CCC(=O)NC2=O)C3=O)CCc2c[nH]c3ccccc23)cc1)NO (stereo not drawn) [Compound 4, (E)-3-(4-(2-(2-(1H-indol-3-yl)ethyl)-13-((2-(2,6-dioxopiperidin-3-yl)-1,3-dioxoisoindolin-4-yl)amino)-5,8,11-trioxa-2-azatridecyl)phenyl)-N-hydroxyacrylamide]	degradation of GFP tagged HDAC8	
O=C(/C=C/c1ccc(CN(CCOCCOCCOCCOCCNc2cccc3c2C(=O)N(C2CCC(=O)NC2=O)C3=O)CCc2c[nH]c3ccccc23)cc1)NO (stereo not drawn) [Compound 5, (E)-3-(4-(2-(2-(1H-indol-3-yl)ethyl)-16-((2-(2,6-dioxopiperidin-3-yl)-1,3-dioxoisoindolin-4-yl)amino)-5,8,11,14-tetraoxa-2-azahexadecyl)phenyl)-N-hydroxyacrylamide]	degradation of GFP tagged HDAC8	significant reduction
